Data as given in US8492515B2 (priority 2008, dated 2013).
Bridge positions count the residues as written; N and C are the ends. Square brackets hold non-standard residues; d marks the D form. Ends that are not written are not given here. I, II: the chains in the order shown. Ac6c = NC1(C(=O)O)CCCCC1; Dab = NCC[C@H](N)C(=O)O

Columns and labels:
K. pneumoniae HK123 = settings: HK123, 16 h
Text: (§1) To investigate the activity of the A3-APO metabolites, Chex1-Arg20 single chain unit and an Arg7-Arg20 common cleavage fragment were synthesized and studied for their ability to kill Enterobacteriaceae strains in undiluted Muller-Hinton broth, a true measure of potential clinical viability (Otvos et al., 2005. J. Med. Chem. 48: 5349-5359). The peptides of the invention were made on a CEM Liberty automated synthesizer with standard Fmoc-chemistry. The peptides were detached from the resin with the carboxyl terminus of the C-terminal Arg residue being in the form of an amino amide, —C(O)—NH2 (“Chex1-Arg20-NH2” and “Arg7-Arg20-NH2”), while still in the microwave chamber, and were purified by RP-HPLC. […] The biological studies carried out on chemically synthesized peptides in this example and succeeding examples were carried out on the C-terminal modified versions of the peptides wherein the C-terminal carboxylic acid function was in the form of an amide, —C(O)—NH2. Antibacterial growth inhibition assays were performed using sterile 96-well polypropylene plates (Nunc F96 microtiter plates) in a final volume of 100 μL as described previously (Cudic et al., 2002. Peptides 23: 271-283). The cell concentrations were estimated by measuring the ultraviolet absorbance at 600 nm and applying the formula cfu/mL=A600(3.8×10^8), where cfu is the number of colony-forming units. Briefly, 50 μL of a suspension of midlogarithmic phase bacterial cultures diluted to 5×10^5 cfu/mL in Muller-Hinton broth (MHB) was added to 50 μL of serially diluted peptides also dissolved in MHB. The final peptide concentration was 128 μg/mL. Cultures were then incubated at 37° C., 5% CO2 for 16-20 h without shaking, and growth inhibition was measured by recording the absorbance at 600 nm using a microplate reader. […] The minimal inhibitory concentration indicates the lowest peptide dose where no visible bacterial growth is detected after 16 hours incubation in full strength Muller-Hinton broth at 37° C. The peptide Chex-pyrr-Dap dimer was also included in the study. […] (Cudic et al., 2002. Peptides 23: 271-283).

E. coli SEQ102 [1] = settings: SEQ102, 16 h
Text: as §1

E. coli HK179 [2] = settings: HK179, 16 h
Text: as §1

S. typhimurium G10215 [3] = settings: G10215, 16 h
Text: as §1

in vitro [4] = format: in vitro ADME; settings: mouse, serum
Description: The metabolic stability of peptide A3-APO in full serum in vitro was examined in peptide degredation studies in blood derived media. A3-APO was added to undiluted mouse serum preparation and was incubated in the full serum for 30 minutes. The serum proteins were precipitated and the serum was submitted for mass spectroscopic analysis.

in vitro [5] = format: in vitro ADME, mouse
Description: The stability of peptide A3-APO was analyzed in commercially available pooled mouse serum diluted to 25% with distilled water as follows. It has been shown that dilution of serum linearly reduces the degradation rate of peptides without changing any other proteolytic parameters (Powell et al., 1992. J. Pharm. Sci. 81: 731-735). […] Specifically, ninety μL of pooled sterile mouse serum (Equitech-Bio, Kerrville, Tex.) was added to 10 μL of peptide A3-APO dissolved in distilled water at 1.28 mg/mL concentration. After incubation periods of 0, 15, 30, 60 or 90, 120 and 240 min at 37° C., 20 μL 15% trichloracetic acid (TCA) was added, the mixture stored at 4° C. for 20 minutes, and centrifuged at 13,000 rpm. The supernatant was submitted to determination of remaining amount of unmodified A3-APO peptide by MS and RP-HPLC.

K. pneumoniae HK 127 = test system: K. pneumoniae HK 127
Text: as §1
(§2) Following the protocol of Example 2, minimal inhibitory concentrations of the Chex1-Arg20 peptide against selected bacteria was determined. […] A3-APO was included for comparison.

E. coli HK131 = test system: E. coli HK131
Text: as §1, §2

K. pneumoniae HK 186 = test system: K. pneumoniae HK 186
Text: as §1, §2

[6] = test system: S. typhimurium ATCC 14028
Text: as §1, §2

E. coli 5770 = test system: E. coli 5770
Text: as §1, §2

E. coli SOTE40 = test system: E. coli SOTE40
Text: as §1, §2

[7] = test system: S. saprophyticus ATCC 15305
Text: as §1, §2

S. typhimurium S5 = test system: S. typhimurium S5
Text: as §1, §2

K. pneumoniae HK 123 = test system: K. pneumoniae HK 123
Text: as §1, §2

P. aeruginosa ATCC 39329 = test system: P. aeruginosa ATCC 39329
Text: as §1, §2

P. aeruginosa 10 = test system: P. aeruginosa 10
Text: as §1, §2

E. coli SEQ102 [8] = test system: E. coli SEQ102
Text: as §1, §2

K. pneumoniae K6 = test system: K. pneumoniae K6
Text: as §1, §2

[9] = test system: A. baumannii ATCC BBA-1605
Text: as §1, §2

E. coli HK179 [10] = test system: E. coli HK179
Text: as §1, §2

E. coli 045-849 = test system: E. coli 045-849
Text: as §1, §2

K. pneumoniae 012-3132 = test system: K. pneumoniae 012-3132
Text: as §1, §2

S. typhimurium G10215 [11] = test system: S. typhimurium G10215
Text: as §1, §2

**Q.** With “I: [Ac6c]RPDKPRPYLPRPRPPRPVR[Dab] / II: [Ac6c]RPDKPRPYLPRPRPPRPVR (amide I:21-II:C (inferred)) [Peptide A3-APO, reference compound]” as the substance, how does the “MIC against K. pneumoniae HK123” value (K. pneumoniae HK123) read?
**A.** 16 µg/mL

**Q.** What about the “MIC against E. coli SEQ102” value (E. coli SEQ102 [1]) of the same substance?
**A.** 16 µg/mL

**Q.** What about the “MIC against E. coli HK179” value (E. coli HK179 [2]) of the same substance?
**A.** 8 µg/mL

**Q.** What about the “MIC against S. typhimurium G10215” value (S. typhimurium G10215 [3]) of the same substance?
**A.** 16 µg/mL

**Q.** What about the metabolised at 0.5 h (in vitro [4]) of the same substance?
**A.** ~35%

**Q.** And the half-life at 0.128 mg/mL (in vitro [5]; 25% pooled mouse serum, 37° C.)?
**A.** ~3.83 h

**Q.** And the “original peptide amount remaining intact within the first hour” value (in vitro [5]; serum)?
**A.** almost half

**Q.** And the “MIC, K. pneumoniae HK 127” value (K. pneumoniae HK 127)?
**A.** 8 µg/mL

**Q.** What about the “MIC, E. coli HK131” value (E. coli HK131) of the same substance?
**A.** 4 µg/mL

**Q.** And the “MIC, K. pneumoniae HK 186” value (K. pneumoniae HK 186)?
**A.** 8 µg/mL

**Q.** And the “MIC, S. typhimurium ATCC 14028” value [6]?
**A.** 8 µg/mL

**Q.** And the “MIC, E. coli 5770” value (E. coli 5770)?
**A.** 2 µg/mL

**Q.** And the “MIC, E. coli SOTE40” value (E. coli SOTE40)?
**A.** 8 µg/mL

**Q.** And the “MIC, S. saprophyticus ATCC 15305” value [7]?
**A.** 2 µg/mL

**Q.** And the “MIC, S. typhimurium S5” value (S. typhimurium S5)?
**A.** 8 µg/mL

**Q.** And the “MIC, K. pneumoniae HK 123” value (K. pneumoniae HK 123)?
**A.** 4 µg/mL

**Q.** And the “MIC, P. aeruginosa ATCC 39329” value (P. aeruginosa ATCC 39329)?
**A.** 8 µg/mL

**Q.** And the “MIC, P. aeruginosa 10” value (P. aeruginosa 10)?
**A.** 8 µg/mL

**Q.** And the “MIC, E. coli SEQ102” value (E. coli SEQ102 [8])?
**A.** 2 µg/mL

**Q.** What about the “MIC, K. pneumoniae K6” value (K. pneumoniae K6) of the same substance?
**A.** 4 µg/mL

**Q.** And the “MIC, A. baumannii ATCC BBA-1605” value [9]?
**A.** 16 µg/mL

**Q.** What about the “MIC, E. coli HK179” value (E. coli HK179 [10]) of the same substance?
**A.** 2 µg/mL

**Q.** What about the “MIC, E. coli 045-849” value (E. coli 045-849) of the same substance?
**A.** 4 µg/mL

**Q.** And the “MIC, K. pneumoniae 012-3132” value (K. pneumoniae 012-3132)?
**A.** 2 µg/mL

**Q.** And the “MIC, S. typhimurium G10215” value (S. typhimurium G10215 [11])?
**A.** 4 µg/mL
